# Like-named read-outs stand apart in the source and are kept apart here.
# Legend:
# [1] = tested on: type 2 diabetic C57BL/6 db/db mice; test: Hypoglycemic effect after subcutaneous injection in db/db mice; type: in vivo, mouse
# [2] = cited from earlier work
substance,measurement,setting,value
"Albiglutide: a exendin-4-albumin fusion protein, FDA approved, once a week administration",blood glucose level,[1]; dose 14 nmol/kg (Figure S8b),11.88 mmol/L
same,time required to rebound to a glucose level of 8.35 mmol/L (hypoglycemic duration),[1]; dose 69 nmol/kg,11 h
same,lowest glucose level,"[1]; dose 69 nmol/kg, three mice, mean",7.03 mmol/L
same,lowest glucose level,[1]; dose 123 nmol/kg (Figure S8c),6.67 mmol/L
same,time required to rebound to a glucose level of 8.35 mmol/L (hypoglycemic duration),[1]; dose 123 nmol/kg (Figure S8d),28 h
same,half-lifetime,[2],96 to 170 h
Exenatide: commercial exendin-4,circulating half-life,[2],1.5 to 3.6 h
GLP-1: 30-amino-acid peptide hormone secreted from gut endocrine L cells,half-lifetime,"[2]; endogenous GLP-1, degraded by DPP-4 once secreted",0.017 to 0.033 h

# From publication PMC5219937 (Bioconjugate chemistry, 2015)
